Among the test systems are 786-0 renal; ACHN renal; CCRF-CEM leukemia; HT29 colon; M14 melanoma; MALME-3M melanoma; NCI-H23 lung; OVCAR-3 ovarian; SF-539 CNS; UACC-62 melanoma.
Holding throughout (assay): NCI tumour cell line growth inhibition, 48 h

Results on eleven compounds are retold here after PubChem BioAssay (NCI).

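Method: 48-hour compound exposure of cells in 96-well plates, five concentrations, linear interpolation of endpoints. GI50 is the concentration that inhibits growth by half. TGI marks complete inhibition of growth.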 Some results are limits rather than exact numbers.

Take `CNCC/C=C1\c2cc3c(cc2-c2c1c1cc(OC)c(OC)cc1c(=O)n2C)OCO3`: the GI50 in the assay with 786-0 renal was 587 nM; in the assay on ACHN renal it was 167 nM; with CCRF-CEM leukemia, less than 0.01 µM; in the assay on HT29 colon, 210 nM; in the assay with M14 melanoma, 621 nM; in the assay on MALME-3M melanoma, 419 nM. Moreover, the GI50 with NCI-H23 lung was 1330 nM; in the assay with OVCAR-3 ovarian, 1040 nM; in the assay with SF-539 CNS it was 400 nM; in the assay on UACC-62 melanoma, 344 nM. Besides, the TGI is 33 µM with 786-0 renal; 2.21 µM with ACHN renal; more than 100 µM in the assay with HT29 colon; 17 µM in the assay with M14 melanoma; 4.59 µM in the assay with MALME-3M melanoma; 7.75 µM in the assay on NCI-H23 lung. Besides, the TGI was found to be 17.9 µM in the assay with OVCAR-3 ovarian, 5.85 µM in the assay on SF-539 CNS and 2.3 µM in the assay on UACC-62 melanoma.

As to `COc1ccc(/C(C)=N/NC(=O)CSc2nc3ccccc3c(=O)n2CCc2ccc(S(N)(=O)=O)cc2)cc1`, the GI50 in the assay with 786-0 renal was 1790 nM; in the assay with ACHN renal, 1730 nM; with CCRF-CEM leukemia, 4.44 µM; in the assay on HT29 colon, 1950 nM; in the assay on M14 melanoma, 1910 nM; in the assay on MALME-3M melanoma it was 1720 nM. The GI50 in the assay with NCI-H23 lung was 2300 nM; with OVCAR-3 ovarian, 1990 nM; in the assay on SF-539 CNS it was 1690 nM; in the assay on UACC-62 melanoma it was 2200 nM. In addition, the TGI with 786-0 renal was 3.44 µM; in the assay on ACHN renal it was 3.27 µM; in the assay with CCRF-CEM leukemia, more than 100 µM; in the assay on HT29 colon, 3.7 µM; in the assay with M14 melanoma, 3.75 µM; in the assay with MALME-3M melanoma it was 3.44 µM. For the same compound, the TGI with NCI-H23 lung stood at 5.81 µM; in the assay on OVCAR-3 ovarian it was 3.85 µM; in the assay with SF-539 CNS, 3.16 µM; in the assay on UACC-62 melanoma it was 4.93 µM.

As to `C1OC1CN1CCN(CC2CO2)CC1` (centres undefined), the TGI in the assay with 786-0 renal, in the assay on ACHN renal, with CCRF-CEM leukemia, in the assay with HT29 colon, with M14 melanoma and in the assay on MALME-3M melanoma was more than 100 µM each time. Moreover, the TGI is more than 81.2 µM in the assay with NCI-H23 lung, more than 100 µM with OVCAR-3 ovarian, more than 100 µM with SF-539 CNS and more than 68.5 µM in the assay with UACC-62 melanoma.

With `CC1(C)CCCC2(C)C3C(O)CC2(C)C(O)C31` (centres undefined), the TGI is 0.156 µM in the assay on 786-0 renal; more than 100 µM in the assay with ACHN renal; more than 100 µM in the assay with CCRF-CEM leukemia; more than 100 µM in the assay on HT29 colon; more than 100 µM with M14 melanoma; more than 100 µM with MALME-3M melanoma. In addition, the TGI in the assay with NCI-H23 lung, in the assay on OVCAR-3 ovarian, in the assay with SF-539 CNS and in the assay on UACC-62 melanoma was more than 100 µM in each case.

As to `O=C(O)[C@@H]1OCCOCCO[C@@H](C(=O)O)[C@H](C(=O)O)OCCOCCO[C@H]1C(=O)O`, the TGI is more than 100 µM with 786-0 renal; more than 100 µM with ACHN renal; more than 73.6 µM in the assay on CCRF-CEM leukemia; more than 100 µM in the assay with HT29 colon; more than 100 µM with M14 melanoma; more than 100 µM in the assay with MALME-3M melanoma. The TGI in the assay on NCI-H23 lung, in the assay on OVCAR-3 ovarian, in the assay with SF-539 CNS and in the assay on UACC-62 melanoma was more than 100 µM throughout.

For `CC1=C(C(=O)NCc2ccccc2)C(c2ccc(Cl)c(Cl)c2)C(C(=O)NCc2ccccc2)=C(C)N1`, the TGI in the assay on 786-0 renal, in the assay with ACHN renal, with CCRF-CEM leukemia, in the assay with HT29 colon, in the assay on M14 melanoma and in the assay with MALME-3M melanoma was more than 100 µM in each case. For the same compound, the TGI in the assay on NCI-H23 lung, in the assay on OVCAR-3 ovarian, with SF-539 CNS and in the assay on UACC-62 melanoma was more than 100 µM each time.

On to `N#Cc1c(-c2ccccc2)cc(-c2ccc(N)cc2)[nH]c1=O`, for which the TGI in the assay with 786-0 renal, in the assay with ACHN renal, in the assay with CCRF-CEM leukemia, with HT29 colon, in the assay on M14 melanoma and with MALME-3M melanoma was more than 100 µM in each case. Besides, the TGI with NCI-H23 lung, with OVCAR-3 ovarian, in the assay with SF-539 CNS and with UACC-62 melanoma was more than 100 µM in each case.

With `N#COc1ccc(Oc2ccccc2)cc1`, the TGI with 786-0 renal is more than 100 µM; in the assay on ACHN renal, more than 100 µM; with CCRF-CEM leukemia it was 60 µM; in the assay on HT29 colon it was more than 100 µM; in the assay with M14 melanoma, more than 100 µM; in the assay with MALME-3M melanoma it was more than 100 µM. The TGI with NCI-H23 lung was more than 100 µM; in the assay with OVCAR-3 ovarian, more than 100 µM; in the assay on SF-539 CNS, 92.4 µM; with UACC-62 melanoma it was more than 100 µM.

On to `C/C(=N\NC(N)=S)c1ccc(C)c(C)c1`, for which the TGI was more than 100 µM with 786-0 renal; more than 100 µM in the assay with ACHN renal; more than 100 µM in the assay with CCRF-CEM leukemia; 98.9 µM in the assay on HT29 colon; more than 100 µM in the assay on M14 melanoma; 94.1 µM with MALME-3M melanoma. For the same compound, the TGI is more than 100 µM in the assay with NCI-H23 lung, 66.7 µM in the assay with OVCAR-3 ovarian, more than 100 µM in the assay with SF-539 CNS and more than 100 µM in the assay on UACC-62 melanoma.

Turning to `CC1=CC(C)(c2c[nH]c3ccccc23)CC(C)(C)c2c1[nH]c1ccccc21` (centres undefined), the TGI is 27.1 µM with 786-0 renal; 44.5 µM in the assay on ACHN renal; 31.7 µM with CCRF-CEM leukemia; 28.6 µM in the assay on HT29 colon; 46.9 µM in the assay on M14 melanoma; 35 µM in the assay with MALME-3M melanoma. Also, the TGI in the assay on NCI-H23 lung was 28.5 µM; in the assay with OVCAR-3 ovarian, 28.6 µM; in the assay on SF-539 CNS it was more than 100 µM; with UACC-62 melanoma, 36.6 µM.

With `CC1=C(/C=C/C(=O)CC(=O)/C=C/C2=C(C)CCCC2(C)C)C(C)(C)CCC1`, the GI50 in the assay on 786-0 renal is 25200 nM; with ACHN renal it was 34300 nM; with CCRF-CEM leukemia, 5.22 µM; in the assay with HT29 colon, 28300 nM; in the assay on M14 melanoma it was 47700 nM; in the assay on MALME-3M melanoma, 38100 nM. Besides, the GI50 in the assay on NCI-H23 lung is 24900 nM; in the assay on OVCAR-3 ovarian, 32100 nM; with SF-539 CNS it was 26000 nM; in the assay on UACC-62 melanoma, 19100 nM. Moreover, the TGI in the assay on 786-0 renal is more than 100 µM; with ACHN renal it was more than 100 µM; in the assay on CCRF-CEM leukemia it was 31 µM; in the assay on HT29 colon it was more than 100 µM; in the assay on M14 melanoma it was more than 100 µM; in the assay on MALME-3M melanoma, more than 100 µM. For the same compound, the TGI was more than 100 µM in the assay with NCI-H23 lung, more than 100 µM in the assay with OVCAR-3 ovarian, more than 100 µM in the assay with SF-539 CNS and 44.7 µM with UACC-62 melanoma.
